Values after ≈ are worked out from the molar mass of the structure shown.
Columns and labels:
Assay type in all cases: cell-based
[1] = system: Moraxella catarrhalis; assay: MIC, Mueller-Hinton broth, Moraxella catarrhalis; settings: Mueller-Hinton broth with hemin and NAD, aerobic, 24 hours, 37° C., 5×10^4 CFU/well
Description: (§1) The following results were obtained on a standard in-vitro test system. The activity is described in terms of the minimum inhibitory concentration (MIC) determined by the agar-dilution technique with an inoculum size of 10^4 CFU/spot. Typically, compounds are active in the range 0.01 to 256 μg/ml.
(§2) Streptococci and enterococci were tested on agar supplemented with 5% defibrinated horse blood, an inoculum of 10^4 CFU/spot and an incubation temperature of 37° C. in an atmosphere of 5% carbon dioxide for 48 hours—blood is required for the growth of some of the test organisms. Fastidious Gram negative organisms were tested in Mueller-Hinton broth, supplemented with hemin and NAD, grown aerobically for 24 hours at 37° C., and with an innoculum of 5×10^4 CFU/well.

[2] = system: Staphylococcus aureus MSQS (methicillin sensitive and quinolone sensitive); assay: MIC, agar-dilution, Staphylococcus aureus MSQS; settings: inoculum 10^4 CFU/spot, 37° C., 24 hours
Description: as §1
(§3) Staphylococci were tested on agar, using an inoculum of 10^4 CFU/spot and an incubation temperature of 37° C. for 24 hours—standard test conditions for the expression of methicillin resistance.

[3] = system: Streptococcus pneumoniae; assay: MIC, agar with 5% horse blood, Streptococcus pneumoniae; settings: agar with 5% defibrinated horse blood, 10^4 CFU/spot, 37° C., 5% carbon dioxide, 48 hours
Description: as §1, §2

[4] = system: Haemophilus influenzae; assay: MIC, Mueller-Hinton broth, Haemophilus influenzae; settings: Mueller-Hinton broth with hemin and NAD, aerobic, 24 hours, 37° C., 5×10^4 CFU/well
Description: as §1, §2

[5] = system: Streptococcus pyogenes; assay: MIC, agar with 5% horse blood, Streptococcus pyogenes; settings: agar with 5% defibrinated horse blood, 10^4 CFU/spot, 37° C., 5% carbon dioxide, 48 hours
Description: as §1, §2

[6] = system: Staphylococcus aureus MRQR (methicillin resistant and quinolone resistant); assay: MIC, agar-dilution, Staphylococcus aureus MRQR; settings: inoculum 10^4 CFU/spot, 37° C., 24 hours
Description: as §1, §3

Which MIC [1] does the source give for Fc1cc(C2=NOC(Cn3ccnn3)C2)ccc1N1CCNCC1 (racemic) [Example 7, (5RS)-3-(3-Fluoro-4-piperazin-1-ylphenyl)-5-(1,2,3-triazol-1-yl-methyl)-4,5-dihydroisoxazole] here?
Its MIC is 32 µg/mL (≈ 96.9 µM).

What about the MIC [2] of the same compound?
Its MIC is 8 µg/mL (≈ 24.2 µM).

What about the MIC [3] of the same compound?
Its MIC is 1 µg/mL (≈ 3.03 µM).

What about the MIC [4] of the same compound?
Its MIC is 32 µg/mL (≈ 96.9 µM).

What about the MIC [5] of the same compound?
Its MIC is 2 µg/mL (≈ 6.05 µM).

And the MIC [6]?
The MIC was 16 µg/mL (≈ 48.4 µM).

Source: patent US7022705B2, “Isoxazoline derivatives useful as antimicrobials” (AstraZeneca AB, priority 2001, dated 2006)
